Reference: ChEMBL document CHEMBL1152378 (Bioorg Med Chem Lett, 2009)

What was measured:
[1] = biological target: Carbonic anhydrase 3 (Homo sapiens, UniProt P07451)
[2] = biological target: Carbonic anhydrase 1 (Homo sapiens, UniProt P00915)
Description: Inhibition of human carbonic anhydrase 1 by stopped flow CO2 hydration assay

[3] = biological target: Carbonic anhydrase 12 (Homo sapiens, UniProt O43570)
[4] = biological target: Carbonic anhydrase 13 (Mus musculus, UniProt Q9D6N1)
[5] = biological target: Carbonic anhydrase 14 (Homo sapiens, UniProt Q9ULX7)
[6] = biological target: Carbonic anhydrase 5B, mitochondrial (Homo sapiens, UniProt Q9Y2D0)
[7] = biological target: T1, Carbonic anhydrase 15 (Mus musculus, UniProt Q99N23)
T1 sequence (Q99N23 whole entry): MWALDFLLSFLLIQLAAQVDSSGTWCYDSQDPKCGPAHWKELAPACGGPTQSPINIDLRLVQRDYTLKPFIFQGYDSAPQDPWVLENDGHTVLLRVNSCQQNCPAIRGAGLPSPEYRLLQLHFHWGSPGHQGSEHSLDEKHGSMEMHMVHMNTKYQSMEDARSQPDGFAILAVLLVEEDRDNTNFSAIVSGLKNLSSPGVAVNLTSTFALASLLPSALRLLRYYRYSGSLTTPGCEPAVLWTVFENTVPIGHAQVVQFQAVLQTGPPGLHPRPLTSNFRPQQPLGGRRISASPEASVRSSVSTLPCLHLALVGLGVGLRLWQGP

[8] = biological target: Carbonic anhydrase 9 (Homo sapiens, UniProt Q16790)
[9] = biological target: Carbonic anhydrase 7 (Homo sapiens, UniProt P43166)
[10] = biological target: Carbonic anhydrase 5A, mitochondrial (Homo sapiens, UniProt P35218)
[11] = biological target: Carbonic anhydrase 6 (Homo sapiens, UniProt P23280)
[12] = biological target: Carbonic anhydrase 2 (Homo sapiens, UniProt P00918)
[13] = biological target: Carbonic anhydrase 4 (Homo sapiens, UniProt P22748)
Chain of Carbonic anhydrase 4 (P22748 whole entry): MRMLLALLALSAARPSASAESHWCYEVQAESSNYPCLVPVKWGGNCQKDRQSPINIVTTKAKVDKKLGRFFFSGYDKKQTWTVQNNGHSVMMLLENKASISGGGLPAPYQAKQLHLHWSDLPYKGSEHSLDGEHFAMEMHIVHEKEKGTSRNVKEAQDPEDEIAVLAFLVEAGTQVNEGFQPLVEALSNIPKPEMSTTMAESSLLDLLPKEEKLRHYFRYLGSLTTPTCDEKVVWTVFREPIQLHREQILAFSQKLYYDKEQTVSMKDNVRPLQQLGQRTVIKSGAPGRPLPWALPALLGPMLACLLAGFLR

Chain of Carbonic anhydrase 5B, mitochondrial (Q9Y2D0 whole entry): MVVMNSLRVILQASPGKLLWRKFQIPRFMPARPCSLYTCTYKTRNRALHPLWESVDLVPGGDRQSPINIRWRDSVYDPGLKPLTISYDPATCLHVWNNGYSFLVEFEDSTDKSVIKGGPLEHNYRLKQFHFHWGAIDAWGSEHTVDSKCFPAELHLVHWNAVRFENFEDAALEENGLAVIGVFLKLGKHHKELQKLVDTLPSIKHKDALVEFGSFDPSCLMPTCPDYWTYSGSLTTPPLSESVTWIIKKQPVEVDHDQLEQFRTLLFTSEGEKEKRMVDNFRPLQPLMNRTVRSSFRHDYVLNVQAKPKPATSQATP
Chain of Carbonic anhydrase 14 (Q9ULX7 whole entry): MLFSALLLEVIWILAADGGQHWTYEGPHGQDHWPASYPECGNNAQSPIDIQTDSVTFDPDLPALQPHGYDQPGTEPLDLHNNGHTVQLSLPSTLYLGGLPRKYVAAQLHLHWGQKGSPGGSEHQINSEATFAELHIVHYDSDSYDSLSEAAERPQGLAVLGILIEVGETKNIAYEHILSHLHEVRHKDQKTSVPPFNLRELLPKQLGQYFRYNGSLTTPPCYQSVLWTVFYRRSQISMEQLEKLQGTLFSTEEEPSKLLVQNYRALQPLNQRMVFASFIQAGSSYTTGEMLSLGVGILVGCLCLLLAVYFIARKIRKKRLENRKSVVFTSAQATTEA
Chain of Carbonic anhydrase 5A, mitochondrial (P35218 whole entry): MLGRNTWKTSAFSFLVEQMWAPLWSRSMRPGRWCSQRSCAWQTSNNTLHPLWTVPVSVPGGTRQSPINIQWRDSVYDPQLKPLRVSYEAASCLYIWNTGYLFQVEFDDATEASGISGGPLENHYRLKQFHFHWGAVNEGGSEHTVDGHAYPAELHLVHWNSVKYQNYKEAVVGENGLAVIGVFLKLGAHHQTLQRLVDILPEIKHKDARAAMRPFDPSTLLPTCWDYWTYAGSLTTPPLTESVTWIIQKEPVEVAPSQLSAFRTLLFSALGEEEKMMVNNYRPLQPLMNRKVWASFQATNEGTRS
Chain of Carbonic anhydrase 13 (Q9D6N1 whole entry): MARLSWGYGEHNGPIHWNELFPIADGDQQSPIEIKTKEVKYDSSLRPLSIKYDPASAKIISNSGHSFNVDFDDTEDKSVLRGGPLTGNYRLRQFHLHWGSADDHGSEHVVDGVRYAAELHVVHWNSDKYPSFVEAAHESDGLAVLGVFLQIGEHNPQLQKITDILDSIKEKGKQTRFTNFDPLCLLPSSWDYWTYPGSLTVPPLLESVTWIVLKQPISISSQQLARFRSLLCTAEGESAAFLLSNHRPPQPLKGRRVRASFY
Chain of Carbonic anhydrase 1 (P00915 whole entry): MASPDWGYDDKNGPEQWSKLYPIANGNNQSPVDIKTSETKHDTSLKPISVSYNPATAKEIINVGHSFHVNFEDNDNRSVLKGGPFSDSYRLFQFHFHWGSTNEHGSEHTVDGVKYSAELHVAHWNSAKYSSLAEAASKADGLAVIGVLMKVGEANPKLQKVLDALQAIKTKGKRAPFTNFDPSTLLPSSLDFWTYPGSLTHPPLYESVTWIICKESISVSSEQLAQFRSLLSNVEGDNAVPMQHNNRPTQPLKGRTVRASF
Chain of Carbonic anhydrase 6 (P23280 whole entry): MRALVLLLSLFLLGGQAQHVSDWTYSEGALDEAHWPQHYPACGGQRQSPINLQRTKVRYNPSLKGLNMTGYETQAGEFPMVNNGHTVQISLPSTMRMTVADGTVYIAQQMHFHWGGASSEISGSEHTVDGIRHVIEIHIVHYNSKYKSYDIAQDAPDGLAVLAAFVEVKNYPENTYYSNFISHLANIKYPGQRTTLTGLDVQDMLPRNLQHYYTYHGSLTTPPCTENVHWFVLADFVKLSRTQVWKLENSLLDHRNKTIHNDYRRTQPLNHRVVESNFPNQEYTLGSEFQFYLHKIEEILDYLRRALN
Chain of Carbonic anhydrase 3 (P07451 whole entry): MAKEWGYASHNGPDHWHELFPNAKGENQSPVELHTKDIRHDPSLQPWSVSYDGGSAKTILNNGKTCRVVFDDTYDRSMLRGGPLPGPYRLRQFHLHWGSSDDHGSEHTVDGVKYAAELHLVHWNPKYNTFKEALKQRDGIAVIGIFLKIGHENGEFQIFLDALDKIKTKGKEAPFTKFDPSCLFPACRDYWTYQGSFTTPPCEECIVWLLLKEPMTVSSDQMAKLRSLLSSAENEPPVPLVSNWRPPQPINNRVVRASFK
Chain of Carbonic anhydrase 12 (O43570 whole entry): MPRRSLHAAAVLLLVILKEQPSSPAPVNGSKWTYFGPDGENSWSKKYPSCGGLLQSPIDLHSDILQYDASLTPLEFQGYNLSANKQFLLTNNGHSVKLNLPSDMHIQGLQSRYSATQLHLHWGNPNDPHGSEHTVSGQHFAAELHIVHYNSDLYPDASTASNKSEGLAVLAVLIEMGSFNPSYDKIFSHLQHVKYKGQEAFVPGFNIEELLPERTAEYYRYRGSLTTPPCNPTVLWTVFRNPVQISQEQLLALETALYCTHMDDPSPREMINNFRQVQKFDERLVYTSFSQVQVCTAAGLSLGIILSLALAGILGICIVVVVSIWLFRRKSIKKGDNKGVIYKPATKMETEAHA
Chain of Carbonic anhydrase 7 (P43166 whole entry): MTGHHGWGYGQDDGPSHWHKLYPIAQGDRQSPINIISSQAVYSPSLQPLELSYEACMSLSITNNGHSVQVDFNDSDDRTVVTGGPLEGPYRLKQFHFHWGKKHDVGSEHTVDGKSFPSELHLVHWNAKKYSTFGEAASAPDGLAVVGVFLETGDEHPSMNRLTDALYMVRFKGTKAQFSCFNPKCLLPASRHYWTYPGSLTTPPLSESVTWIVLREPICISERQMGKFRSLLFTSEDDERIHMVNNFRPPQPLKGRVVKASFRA

COc1cc(O)c(/C=C\C(=O)O)cc1[C@@H](O)CC(C)C
IC50 [1]: > 10 nM | IC50 [2]: 78 nM | IC50 [3]: 48600 nM | IC50 [4]: 790 nM | IC50 [5]: 780 nM | IC50 [6]: 17700 nM | IC50 [7]: 93100 nM | IC50 [8]: 54500 nM | IC50 [9]: 27900 nM | IC50 [10]: 9600 nM | IC50 [11]: 35700 nM

C#CCNc1nc(Nc2ccc(S(N)(=O)=O)cc2)ncc1Br
IC50 [12]: 331 nM

Cc1cn(-c2cc(NC(=O)c3ccc(C)c(Nc4nccc(-c5cccnc5)n4)c3)cc(C(F)(F)F)c2)cn1 [NILOTINIB]
Ki [1]: 443 nM | Ki [2]: 29.3 nM | Ki [13]: 446 nM | Ki [3]: 302 nM | Ki [4]: 4670 nM | Ki [5]: 223 nM | Ki [6]: 14900 nM | Ki [7]: 79 nM | Ki [8]: 41.9 nM | Ki [10]: 5490 nM | Ki [11]: 461 nM
